The results in this text go back to patent US20170022258A1, “PEPTIDES FOR USE IN THE TREATMENT OF IL-1 RELATED DISEASES AND CONDITIONS” (C4M PHARMACEUTICALS PTY LTD., priority 2011, published 2017).

Non-standard residues stand in square brackets, D forms with d. Residues, ends and D or L forms follow the SMILES beside them. No end group written: not given here. Where only a bound is given, the exact number is not on record here.

The first assay has as its target T1, IL-1 receptor (IL-1R) expressed on human monocytes (human, UniProt P14778 18-569).
T1 sequence (looked up): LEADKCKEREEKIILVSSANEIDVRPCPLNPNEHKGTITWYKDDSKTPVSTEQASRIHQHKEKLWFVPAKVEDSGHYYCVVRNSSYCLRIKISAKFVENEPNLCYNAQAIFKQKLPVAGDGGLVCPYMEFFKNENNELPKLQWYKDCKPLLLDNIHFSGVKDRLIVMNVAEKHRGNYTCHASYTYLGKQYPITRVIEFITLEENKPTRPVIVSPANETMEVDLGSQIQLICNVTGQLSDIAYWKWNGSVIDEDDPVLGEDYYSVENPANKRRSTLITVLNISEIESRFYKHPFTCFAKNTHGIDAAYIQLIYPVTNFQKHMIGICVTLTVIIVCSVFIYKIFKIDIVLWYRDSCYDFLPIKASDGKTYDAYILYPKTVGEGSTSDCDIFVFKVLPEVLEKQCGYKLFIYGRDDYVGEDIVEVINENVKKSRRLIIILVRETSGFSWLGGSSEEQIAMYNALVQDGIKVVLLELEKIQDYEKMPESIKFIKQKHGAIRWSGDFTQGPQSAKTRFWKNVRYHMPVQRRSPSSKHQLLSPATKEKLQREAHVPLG
The assay is described as follows: cell-based or functional assay.
Conditions: not given
Consider Ac-[dK][dD][dQ][dK][dR][dN][dE][dS][dL][dD][dT][dI][dN][dV][dA][dE][dL][dQ][dL] [peptide of SEQ ID NO: 12 (Ac-KDQKRNESLDTINVAELQL, D-amino acids)], for which the “IC50, in vitro inhibition of IL-1 stimulation of IL-8 in human skin fibroblasts (rIL-1β 50 pg/ml, IL-8 ELISA)” value was above 10000 nM.

In the case of Ac-ETPFTWEESNAYYWQPYALPL (also called peptide 13) [peptide of SEQ ID NO: 13 (Ac-ETPFTWEESNAYYWQPYALPL)], the “IC50, in vitro inhibition of IL-1 stimulation of IL-8 in human skin fibroblasts (rIL-1β 50 pg/ml, IL-8 ELISA)” value was 11 nM.

Another assay concerns the target T2, IL-1 receptor (Homo sapiens, UniProt P14778).
T2 construct: confluent human monocytes, which express the IL-1 receptor; endogenous in cells; host or cells: human monocytes
T2 sequence (P14778 18-569): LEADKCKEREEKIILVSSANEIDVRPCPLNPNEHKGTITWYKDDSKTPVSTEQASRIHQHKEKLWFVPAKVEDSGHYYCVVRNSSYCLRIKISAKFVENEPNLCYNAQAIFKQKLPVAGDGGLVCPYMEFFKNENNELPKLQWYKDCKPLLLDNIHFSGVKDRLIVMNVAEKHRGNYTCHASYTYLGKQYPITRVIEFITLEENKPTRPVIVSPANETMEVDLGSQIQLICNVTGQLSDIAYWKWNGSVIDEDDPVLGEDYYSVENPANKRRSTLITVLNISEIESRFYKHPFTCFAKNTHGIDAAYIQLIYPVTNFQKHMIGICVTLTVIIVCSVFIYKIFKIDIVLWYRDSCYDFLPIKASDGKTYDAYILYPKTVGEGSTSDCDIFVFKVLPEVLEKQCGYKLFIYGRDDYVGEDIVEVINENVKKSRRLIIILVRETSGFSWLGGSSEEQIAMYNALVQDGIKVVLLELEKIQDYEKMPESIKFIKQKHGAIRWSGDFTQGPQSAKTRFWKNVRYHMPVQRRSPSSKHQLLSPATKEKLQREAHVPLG
The assay is described as follows: Radioligand competition binding assay (125I-labeled IL-1α) on human monocytes. The conditions noted are these: IL-1 binding antagonism on human monocytes; average of three measurements and standard error. On the procedure:
Radioligand competition binding assays were performed in 96-well plates containing confluent human monocytes, which express the IL-1 receptor. Wells were washed three times with binding buffer, and binding buffer was placed in each well. Peptides were resuspended in dimethyl sulfoxide at 20 mM and diluted in binding buffer to the desired starting concentration. Using a Beckman robotic system, five 3-fold dilutions were prepared, and peptide solution was transferred to duplicate receptor-containing wells. To each well, radioactive ^125Iodine-labeled IL-Ia (Amersham) was added to a final concentration of 40 pM, and the plates were placed on a shaking platform at 4° C. for 2 hr. Plates were washed with PBS using a plate washer, and bound ^125I-labeled IL-la was eluted for 10 min with 0.1 M NaOH and counted in a gamma counter. IC50 values were determined by fitting the data to a two-parameter logistic equation. In all cases, nonspecific binding was determined by the addition of 3 μM of recombinant IL-Ia.
A general note: Loss of bound radioactivity is the signal in a displacement assay; it reports binding, not function.
In the case of `CC(=O)N[C@@H](CC(N)=O)C(=O)N[C@@H](CC(N)=O)C(=O)N[C@@H](CCC(N)=O)C(=O)N[C@@H](CC(C)C)C(=O)N[C@H](C(=O)N[C@@H](C)C(=O)NCC(=O)N[C@@H](Cc1ccc(O)cc1)C(=O)N[C@@H](CC(C)C)C(=O)N[C@@H](CCC(N)=O)C(=O)NCC(=O)N1CCC[C@H]1C(=O)N[C@@H](CC(N)=O)C(=O)N[C@H](C(=O)N[C@@H](CC(N)=O)C(=O)O)C(C)C)C(C)C` [SEQ ID NO. 7, Ac-NNQLVAGYLQGPNVN] (Ac-NNQLVAGYLQGPNVN-OH; C-terminus assumed), the IC50 is above 10000 nM.

Molecule `CC[C@H](C)[C@H](NC(C)=O)C(=O)N[C@@H](CC(=O)O)C(=O)N[C@H](C(=O)N[C@H](C(=O)N1CCC[C@H]1C(=O)N[C@H](C(=O)N[C@@H](CCC(=O)O)C(=O)N[C@@H](C)C(=O)N1CCC[C@H]1C(=O)N[C@@H](Cc1c[nH]cn1)C(=O)N[C@@H](C)C(=O)N[C@@H](CC(C)C)C(=O)N[C@@H](Cc1ccccc1)C(=O)N[C@@H](CC(C)C)C(=O)NCC(=O)N[C@H](C(=O)N[C@@H](Cc1c[nH]cn1)C(=O)NCC(=O)NCC(=O)N[C@@H](CCCCN)C(=O)O)[C@@H](C)CC)[C@@H](C)CC)C(C)C)C(C)C` [SEQ ID NO. 9] (Ac-IDVVPIEAPHALFLGIHGGK-OH; C-terminus assumed) returned an IC50 above 10000 nM.

For `CC[C@H](C)[C@H](NC(=O)[C@H](CC(N)=O)NC(=O)[C@@H](NC(=O)[C@H](C)NC(=O)[C@H](CCC(=O)O)NC(=O)[C@H](CC(C)C)NC(=O)[C@H](CCC(N)=O)NC(=O)[C@H](CC(C)C)NC(C)=O)C(C)C)C(=O)N[C@H](C(=O)N[C@@H](CC(=O)O)C(=O)N[C@@H](CC(C)C)C(=O)N[C@@H](CO)C(=O)N[C@@H](CCC(=O)O)C(=O)N[C@@H](CC(N)=O)C(=O)N[C@@H](CCCNC(=N)N)C(=O)N[C@@H](CCCCN)C(=O)N[C@@H](CCC(N)=O)C(=O)N[C@@H](CC(=O)O)C(=O)N[C@@H](CCCCN)C(=O)O)[C@@H](C)O` [SEQ ID NO. 11, Ac-LQLEAVNITDLSENRKQDK] (Ac-LQLEAVNITDLSENRKQDK-OH; C-terminus assumed), the IC50 was above 10000 nM.

In a further assay the test system is IL-1 stimulation of IL-8 in human skin fibroblasts. The experiment in a line: Inhibition of IL-1 induced IL-8 in human fibroblasts. Format: cell-based. As to conditions: inhibition of IL-1 stimulation of IL-8 in human skin fibroblasts; average of three measurements and standard error; read-out: Binding (IC50 nM). On the procedure: Inhibition of IL-1 induced IL-8 in human fibroblasts was determined using normal human dermal fibroblast cells cultured in DMEM with 10% fetal calf serum in 48-well plates.
Twenty-four hours before initiation of the experiment, the medium was changed to DMEM with 0.2% fetal calf serum. Each peptide was added to confluent cells, which were then pulsed for 30 min with rIL-I,B (which was obtained from R & D Systems) at 50 pg/ml. The cells were washed four times with PBS, and fresh DMEM/0.2% fetal calf serum was added to each well. After 5 hr of incubation, the culture media were collected and analyzed by ELISA for IL-8 (which was obtained from R & D Systems). Maximal activation, with IL-1 only, was 2530±13 pg/ml of IL-8. Nonspecific activation, determined in the presence of 1000-fold excess IL-1Ra, was 30±9 pg/ml of IL-8 (n=3).
Turning to `CC(=O)N[C@@H](Cc1ccccc1)C(=O)N[C@H](C(=O)N[C@@H](Cc1c[nH]c2ccccc12)C(=O)N[C@@H](CCC(=O)O)C(=O)N[C@@H](CCC(=O)O)C(=O)N[C@@H](CO)C(=O)N[C@@H](CC(N)=O)C(=O)N[C@@H](C)C(=O)N[C@@H](Cc1ccc(O)cc1)C(=O)N[C@@H](Cc1ccc(O)cc1)C(=O)N[C@@H](Cc1c[nH]c2ccccc12)C(=O)N[C@@H](CCC(N)=O)C(=O)N1CCC[C@H]1C(=O)N[C@@H](Cc1ccc(O)cc1)C(=O)N[C@@H](C)C(=O)N[C@@H](CC(C)C)C(=O)N1CCC[C@H]1C(=O)N[C@@H](CC(C)C)C(=O)O)[C@@H](C)O` [SEQ ID NO. 15, Ac-FTWEESNAYYWQPYALPL] (Ac-FTWEESNAYYWQPYALPL-OH; C-terminus assumed), the IC50 is 16 nM.

Regarding `CC(=O)N[C@H](CC(C)C)C(=O)N1CCC[C@@H]1C(=O)N[C@H](CC(C)C)C(=O)N[C@H](C)C(=O)N[C@H](Cc1ccc(O)cc1)C(=O)N1CCC[C@@H]1C(=O)N[C@H](CCC(N)=O)C(=O)N[C@H](Cc1c[nH]c2ccccc12)C(=O)N[C@H](Cc1ccc(O)cc1)C(=O)N[C@H](Cc1ccc(O)cc1)C(=O)N[C@H](C)C(=O)N[C@H](CC(N)=O)C(=O)N[C@H](CO)C(=O)N[C@H](CCC(=O)O)C(=O)N[C@H](CCC(=O)O)C(=O)N[C@H](Cc1c[nH]c2ccccc12)C(=O)N[C@@H](C(=O)N[C@H](Cc1ccccc1)C(=O)O)[C@H](C)O` [SEQ ID NO. 16, Ac-LPLAYPQWYYANSEEWTF] (Ac-[dL][dP][dL][dA][dY][dP][dQ][dW][dY][dY][dA][dN][dS][dE][dE][dW][dT][dF]-OH; C-terminus assumed), the IC50 turned out to be 120 nM.

With `CC(=O)N[C@H](C(=O)N[C@@H](C)C(=O)N[C@@H](CC(N)=O)C(=O)N[C@H](C(=O)N[C@@H](CO)C(=O)N[C@@H](CO)C(=O)N[C@@H](Cc1ccccc1)C(=O)N[C@@H](CCC(=O)O)C(=O)N[C@@H](Cc1c[nH]c2ccccc12)C(=O)N[C@H](C(=O)N1CCC[C@H]1C(=O)NCC(=O)N[C@@H](Cc1ccc(O)cc1)C(=O)N[C@@H](Cc1c[nH]c2ccccc12)C(=O)N[C@@H](CCC(N)=O)C(=O)N1CCC[C@H]1C(=O)N[C@@H](Cc1ccc(O)cc1)C(=O)N[C@@H](C)C(=O)N[C@@H](CC(C)C)C(=O)N1CCC[C@H]1C(=O)N[C@@H](CC(C)C)C(=O)O)[C@@H](C)O)C(C)C)[C@@H](C)O` [SEQ ID NO. 17] (Ac-TANVSSFEWTPGYWQPYALPL-OH; C-terminus assumed), the IC50 came to 76 nM.

On to `CC(=O)N[C@H](CC(C)C)C(=O)N1CCC[C@@H]1C(=O)N[C@H](CC(C)C)C(=O)N[C@H](C)C(=O)N[C@H](Cc1ccc(O)cc1)C(=O)N1CCC[C@@H]1C(=O)N[C@H](CCC(N)=O)C(=O)N[C@H](Cc1c[nH]c2ccccc12)C(=O)N[C@H](Cc1ccc(O)cc1)C(=O)NCC(=O)N1CCC[C@@H]1C(=O)N[C@@H](C(=O)N[C@H](Cc1c[nH]c2ccccc12)C(=O)N[C@H](CCC(=O)O)C(=O)N[C@H](Cc1ccccc1)C(=O)N[C@H](CO)C(=O)N[C@H](CO)C(=O)N[C@@H](C(=O)N[C@H](CC(N)=O)C(=O)N[C@H](C)C(=O)N[C@@H](C(=O)O)[C@H](C)O)C(C)C)[C@H](C)O` [SEQ ID NO. 18], for which the half-maximal inhibitory concentration (IC50) was 810 nM.

Regarding `CC(=O)N[C@@H](CC(=O)O)C(=O)NCC(=O)N[C@@H](Cc1ccc(O)cc1)C(=O)N[C@@H](CC(=O)O)C(=O)N[C@@H](CCCNC(=N)N)C(=O)N[C@@H](Cc1c[nH]c2ccccc12)C(=O)N[C@@H](CCCNC(=N)N)C(=O)N[C@@H](CCC(N)=O)C(=O)N[C@@H](CO)C(=O)NCC(=O)N[C@@H](CCC(=O)O)C(=O)N[C@@H](CCCNC(=N)N)C(=O)N[C@@H](Cc1ccc(O)cc1)C(=O)N[C@@H](Cc1c[nH]c2ccccc12)C(=O)N[C@@H](CCC(N)=O)C(=O)N1CCC[C@H]1C(=O)N[C@@H](Cc1ccc(O)cc1)C(=O)N[C@@H](C)C(=O)N[C@@H](CC(C)C)C(=O)N1CCC[C@H]1C(=O)N[C@@H](CC(C)C)C(=O)O` [SEQ ID NO. 20] (Ac-DGYDRWRQSGERYWQPYALPL-OH; C-terminus assumed), the IC50 came to 19 nM.

Regarding `CC(=O)N[C@H](CC(C)C)C(=O)N1CCC[C@@H]1C(=O)N[C@H](CC(C)C)C(=O)N[C@H](C)C(=O)N[C@H](Cc1ccc(O)cc1)C(=O)N1CCC[C@@H]1C(=O)N[C@H](CCC(N)=O)C(=O)N[C@H](Cc1c[nH]c2ccccc12)C(=O)N[C@H](Cc1ccc(O)cc1)C(=O)N[C@H](CCCNC(=N)N)C(=O)N[C@H](CCC(=O)O)C(=O)NCC(=O)N[C@H](CO)C(=O)N[C@H](CCC(N)=O)C(=O)N[C@H](CCCNC(=N)N)C(=O)N[C@H](Cc1c[nH]c2ccccc12)C(=O)N[C@H](CCCNC(=N)N)C(=O)N[C@H](CC(=O)O)C(=O)N[C@H](Cc1ccc(O)cc1)C(=O)NCC(=O)N[C@H](CC(=O)O)C(=O)O` [SEQ ID NO. 21] (Ac-[dL][dP][dL][dA][dY][dP][dQ][dW][dY][dR][dE]G[dS][dQ][dR][dW][dR][dD][dY]G[dD]-OH; C-terminus assumed), the IC50 amounted to 730 nM.

In general, IC50 refers to the midpoint of a concentration-inhibition curve.
